According to patent publication US20210038607A1, “OXADIAZOLYLTHIOPHENE DERIVATIVES USEFUL AS HISTONE DEACETYLASE INHIBITORS” (Karus Therapeutics Limited, priority 2018, published 2021):

Assays:
[1] = molecular target: T1, Human HDAC1 (Homo sapiens, UniProt Q13547); assay: HDAC1 biochemical assay, AMC-labeled peptide substrate; conditions: read-out: HDAC Isoform IC50 (nM) 1
T1 construct: full length with C-terminal His-tag and C-terminal FLAG-tag; His (C); FLAG (C); host or cells: baculovirus expression system
T1 sequence (Q13547 whole entry, canonical isoform): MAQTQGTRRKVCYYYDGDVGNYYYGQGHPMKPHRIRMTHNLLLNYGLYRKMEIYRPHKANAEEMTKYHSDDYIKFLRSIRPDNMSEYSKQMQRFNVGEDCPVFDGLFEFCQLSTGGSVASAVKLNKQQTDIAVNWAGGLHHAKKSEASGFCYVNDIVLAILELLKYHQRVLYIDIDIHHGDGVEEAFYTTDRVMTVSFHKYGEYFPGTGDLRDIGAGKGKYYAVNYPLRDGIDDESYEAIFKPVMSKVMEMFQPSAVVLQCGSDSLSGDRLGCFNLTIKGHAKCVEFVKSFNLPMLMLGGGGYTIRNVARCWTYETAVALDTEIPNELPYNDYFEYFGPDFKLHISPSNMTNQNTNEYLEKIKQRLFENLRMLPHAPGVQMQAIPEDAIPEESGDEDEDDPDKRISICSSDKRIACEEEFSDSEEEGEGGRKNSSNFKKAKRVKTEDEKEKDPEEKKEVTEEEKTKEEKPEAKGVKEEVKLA
Protocol: (§1) Activity against all zinc-dependent HDACs 1 to 11 was assessed by using an acetylated AMC-labeled peptide substrate. The substrate RHKK(Ac)AMC was used for HDAC1, HDAC2, HDAC3, HDAC6 and HDAC10; the substrate used for HDAC8 was RHK(Ac)K(Ac)AMC. Activity against the class IIa HDACs (HDAC4, 5, 7, 9) and HDAC11 was determined using a class IIa-specific substrate, BOC-Lys(trifluoroacetyl)-AMC (“Trifluoroacetyl Lysine”; see Lahm et al, 2007, PNAS, 104, 17335-17340). All assays were based on the AMC-labeled substrate and developer combination.
(§2) The protocol involved a two-step reaction: first, the substrate with the acetylated lysine side chain is incubated with a sample containing HDAC activity, to produce the deacetylated products, which are then digested in the second step by the addition of developer to produce the fluorescent signal proportional to the amount of deacetylated substrates.
Human HDAC1 (GenBank Accession No. NM_004964), full length with C-terminal His-tag and C-terminal FLAG-tag, MW=56 kDa, expressed in baculovirus expression system.
(§3) Assay Buffer: 50 mM Tris-HCl, pH8.0, 137 mM NaCl, 2.7 mM KCl, 1 mM MgC2. Before use, 1 mg/mL BSA and DMSO are added.
HDAC1: 0.3 ng/ul HDAC1 and 50 μM HDAC substrate are in the reaction buffer with 1% DMSO final. Incubate for 1 hour at 30° C.
(§4) Stage 1: Deacetylation of substrate by incubation of HDAC enzymes with compounds
(§5) Stage 2: Development by addition of Developer to digest the deacetylated substrate, and generate the fluorescent colour; Detection: 360/460 Ex/Em

[2] = molecular target: T2, Human HDAC4 (Homo sapiens, UniProt P56524); assay: HDAC4 biochemical assay, class IIa-specific substrate; conditions: read-out: HDAC Isoform IC50 (nM) 4
T2 construct: amino acids 627-1085 with N-terminal GST tag; GST (N); host or cells: baculovirus expression system
T2 sequence (P56524 627-1084 limits assumed): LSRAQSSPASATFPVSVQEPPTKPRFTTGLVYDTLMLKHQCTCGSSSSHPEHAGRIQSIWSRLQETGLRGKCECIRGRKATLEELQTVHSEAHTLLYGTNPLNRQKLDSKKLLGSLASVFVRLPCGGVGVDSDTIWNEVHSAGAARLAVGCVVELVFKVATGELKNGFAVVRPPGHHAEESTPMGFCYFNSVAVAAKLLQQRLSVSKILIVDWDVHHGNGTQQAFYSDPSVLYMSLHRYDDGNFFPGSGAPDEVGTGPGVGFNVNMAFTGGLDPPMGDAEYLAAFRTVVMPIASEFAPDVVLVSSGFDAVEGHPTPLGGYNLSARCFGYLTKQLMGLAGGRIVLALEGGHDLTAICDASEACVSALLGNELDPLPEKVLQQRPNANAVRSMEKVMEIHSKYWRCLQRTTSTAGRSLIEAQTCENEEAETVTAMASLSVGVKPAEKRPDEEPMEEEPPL
Protocol: as §1, §2
Human HDAC4 (GenBank Accession No. NM_006037), amino acids 627-1085 with N-terminal GST tag, MW=75.2 kDa, expressed in baculovirus expression system.
as §3
(§6) For class IIa HDACs, assay buffer is the same.
HDAC4: 0.004 ng/ul HDAC4 and 50 μM Class IIa HDAC substrate are in the reaction buffer with 1% DMSO final. Incubate for 30 minutes at room temperature.
as §4, §5

[3] = molecular target: T3, Human HDAC5 (Homo sapiens, UniProt Q9UQL6); assay: HDAC5 biochemical assay, class IIa-specific substrate; conditions: read-out: HDAC Isoform IC50 (nM) 5
T3 construct: full length with C-terminal His tag, MW=51.1 kDa; His (C); host or cells: baculovirus expression system
T3 sequence (Q9UQL6 656-1122 limits assumed): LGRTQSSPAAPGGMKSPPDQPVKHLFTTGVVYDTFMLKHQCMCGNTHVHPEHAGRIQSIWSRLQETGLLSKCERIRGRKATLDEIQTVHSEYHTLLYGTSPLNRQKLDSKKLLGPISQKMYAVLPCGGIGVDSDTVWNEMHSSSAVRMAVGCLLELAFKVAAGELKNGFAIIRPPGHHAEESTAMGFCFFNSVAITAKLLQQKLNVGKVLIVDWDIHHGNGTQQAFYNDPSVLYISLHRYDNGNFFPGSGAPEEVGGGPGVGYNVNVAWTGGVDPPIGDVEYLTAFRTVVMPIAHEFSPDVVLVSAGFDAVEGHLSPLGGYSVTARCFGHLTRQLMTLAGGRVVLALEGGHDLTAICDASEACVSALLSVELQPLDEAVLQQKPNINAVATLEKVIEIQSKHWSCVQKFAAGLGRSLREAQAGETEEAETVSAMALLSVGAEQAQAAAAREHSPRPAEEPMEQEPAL
Protocol: as §1, §2
Human HDAC5 (GenBank Accession No. NM_005474), full length with C-terminal His tag, MW=51.1 kDa, expressed in baculovirus expression system.
as §3, §6
HDAC5: 0.05 ng/ul HDAC5 and 50 μM Class IIa HDAC substrate are in the reaction buffer with 1% DMSO final. Incubate for 30 minutes at room temperature.
as §4, §5

[4] = molecular target: T4, Recombinant human HDAC6 (Homo sapiens, UniProt Q9UBN7); assay: HDAC6 biochemical assay, AMC-labeled peptide substrate; conditions: HDAC6; read-out: HDAC Isoform IC50 (nM) 6
T4 construct: full length, MW=159 kDa; GST (N); host or cells: Sf9 insect cells (baculovirus)
T4 sequence (Q9UBN7 1-1215): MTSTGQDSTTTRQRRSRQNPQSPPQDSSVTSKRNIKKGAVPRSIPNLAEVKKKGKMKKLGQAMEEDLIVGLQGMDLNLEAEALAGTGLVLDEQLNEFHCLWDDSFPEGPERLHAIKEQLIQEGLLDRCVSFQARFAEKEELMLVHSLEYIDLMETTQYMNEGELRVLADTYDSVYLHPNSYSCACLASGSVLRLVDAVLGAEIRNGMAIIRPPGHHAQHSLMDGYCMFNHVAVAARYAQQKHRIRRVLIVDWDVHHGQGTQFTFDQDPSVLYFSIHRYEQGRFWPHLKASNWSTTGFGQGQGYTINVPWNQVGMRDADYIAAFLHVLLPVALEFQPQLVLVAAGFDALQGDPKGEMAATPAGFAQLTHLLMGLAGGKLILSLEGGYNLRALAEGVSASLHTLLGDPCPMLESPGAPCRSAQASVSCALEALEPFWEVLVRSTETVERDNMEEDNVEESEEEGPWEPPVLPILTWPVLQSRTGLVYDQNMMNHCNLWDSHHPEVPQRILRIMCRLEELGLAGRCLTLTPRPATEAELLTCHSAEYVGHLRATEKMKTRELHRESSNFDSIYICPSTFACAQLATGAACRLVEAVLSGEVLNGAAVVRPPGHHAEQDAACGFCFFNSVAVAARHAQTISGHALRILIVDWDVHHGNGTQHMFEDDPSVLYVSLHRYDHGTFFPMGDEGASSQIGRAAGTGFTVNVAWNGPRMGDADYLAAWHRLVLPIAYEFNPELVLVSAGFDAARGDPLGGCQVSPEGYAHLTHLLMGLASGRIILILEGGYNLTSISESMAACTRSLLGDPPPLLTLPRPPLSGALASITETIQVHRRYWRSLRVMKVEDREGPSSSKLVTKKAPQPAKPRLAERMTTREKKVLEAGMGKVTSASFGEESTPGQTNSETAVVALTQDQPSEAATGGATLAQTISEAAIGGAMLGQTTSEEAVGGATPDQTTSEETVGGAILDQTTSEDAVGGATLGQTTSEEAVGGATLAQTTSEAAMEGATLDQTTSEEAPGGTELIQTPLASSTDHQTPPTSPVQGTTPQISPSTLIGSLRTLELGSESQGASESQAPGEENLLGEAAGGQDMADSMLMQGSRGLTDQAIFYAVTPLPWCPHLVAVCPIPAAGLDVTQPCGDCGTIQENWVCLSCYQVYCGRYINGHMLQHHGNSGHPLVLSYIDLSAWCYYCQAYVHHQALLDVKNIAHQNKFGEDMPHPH
Protocol: as §1, §2
Recombinant human HDAC6 (GenBank Accession No. BC069243), full length, MW=159 kDa, was expressed by baculovirus in Sf9 insect cells using an N-terminal GST tag.
as §3
HDAC6: 0.3 ng/ul HDAC6 and 50 μM HDAC substrate are in the reaction buffer with 1% DMSO final. Incubate for 1 hours at 30° C.
as §4, §5

[5] = molecular target: T5, Human HDAC7 (Homo sapiens, UniProt Q8WUI4); assay: HDAC7 biochemical assay, class IIa-specific substrate; conditions: read-out: HDAC Isoform IC50 (nM) 7
T5 construct: (a.a. 518-end) with N-terminal GST tag; GST (N); host or cells: baculovirus expression system
T5 sequence (Q8WUI4 518-952 limits assumed): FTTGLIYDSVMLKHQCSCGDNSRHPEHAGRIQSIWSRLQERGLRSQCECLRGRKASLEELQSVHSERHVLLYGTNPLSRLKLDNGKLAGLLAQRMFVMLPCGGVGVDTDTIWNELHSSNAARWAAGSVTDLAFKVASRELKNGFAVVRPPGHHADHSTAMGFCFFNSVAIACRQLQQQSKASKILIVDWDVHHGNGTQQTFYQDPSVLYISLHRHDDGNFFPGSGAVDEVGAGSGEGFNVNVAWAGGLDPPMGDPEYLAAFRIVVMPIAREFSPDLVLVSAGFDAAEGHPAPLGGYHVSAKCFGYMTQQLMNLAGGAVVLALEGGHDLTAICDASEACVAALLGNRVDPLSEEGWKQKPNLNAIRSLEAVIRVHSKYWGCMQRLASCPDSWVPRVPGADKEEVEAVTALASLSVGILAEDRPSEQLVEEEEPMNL
Protocol: as §1, §2
Human HDAC7 (GenBank Accession No. AY302468), (a.a. 518-end) with N-terminal GST tag, MW=78 kDa, expressed in baculovirus expression system.
as §3, §6
HDAC7: 0.001 ng/ul HDAC7 and 50 μM Class IIa HDAC substrate are in the reaction buffer with 1% DMSO final. Incubate for 30 minutes at room temperature.
as §4, §5

[6] = molecular target: T6, Human HDAC9 (Homo sapiens, UniProt Q9UKV0); assay: HDAC9 biochemical assay, class IIa-specific substrate; conditions: read-out: HDAC Isoform IC50 (nM) 9
T6 construct: amino acids 604-1066 with C-terminal His tag; His (C); host or cells: baculovirus expression system
T6 sequence (Q9UKV0 604-1066 isoform Q9UKV0-5): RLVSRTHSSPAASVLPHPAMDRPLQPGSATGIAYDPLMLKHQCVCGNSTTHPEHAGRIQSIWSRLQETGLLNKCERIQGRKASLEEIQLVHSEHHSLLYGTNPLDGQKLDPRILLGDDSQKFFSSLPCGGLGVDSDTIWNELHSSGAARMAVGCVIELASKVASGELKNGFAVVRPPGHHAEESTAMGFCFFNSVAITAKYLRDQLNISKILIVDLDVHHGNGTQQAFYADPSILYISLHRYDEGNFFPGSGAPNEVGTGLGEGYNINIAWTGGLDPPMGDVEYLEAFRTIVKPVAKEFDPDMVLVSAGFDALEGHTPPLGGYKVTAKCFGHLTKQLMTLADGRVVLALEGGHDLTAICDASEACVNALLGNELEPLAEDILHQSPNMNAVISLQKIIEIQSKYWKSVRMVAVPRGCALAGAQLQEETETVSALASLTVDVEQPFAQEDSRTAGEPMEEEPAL
Protocol: as §1, §2
Human HDAC9 (GenBank Accession No. NM_178423), amino acids 604-1066 with C-terminal His tag, MW=50.7 kDa, expressed in baculovirus expression system.
as §3, §6
HDAC9: 0.06 ng/ul HDAC9 and 50 μM Class IIa HDAC substrate are in the reaction buffer with 1% DMSO final. Incubate for 30 minutes at room temperature.
as §4, §5

Structure (SMILES) | IC50 [1] | IC50 [2] | IC50 [3] | IC50 [4] | IC50 [5] | IC50 [6]
FC(F)(F)c1nc(-c2ccc(CN(c3cnccn3)c3ccnc4ccnn34)s2)no1 [Example CF, N-{Pyrazolo[1,5-a]pyrimidin-7-yl}-N-({5-[5-(trifluoromethyl)-1,2,4-oxadiazol-3-yl]thiophen-2-yl}methyl)pyrazin-2-amine] | > 10000 nM | ≤ 1000 nM | ≤ 10000 nM | ≤ 10000 nM | ≤ 10000 nM | ≤ 10000 nM
COc1cc(N(Cc2ccc(-c3noc(C(F)(F)F)n3)s2)c2cnccn2)ncn1 [Example CH, 6-Methoxy-N-(pyrazin-2-yl)-N-({5-[5-(trifluoromethyl)-1,2,4-oxadiazol-3-yl]thiophen-2-yl}methyl)pyrimidin-4-amine] | > 10000 nM | ≤ 10000 nM | ≤ 10000 nM | ≤ 10000 nM | ≤ 10000 nM | ≤ 10000 nM
CS(=O)(=O)c1cc(N(Cc2ccc(-c3noc(C(F)(F)F)n3)s2)c2cnccn2)ncn1 [Example CK, 6-Methanesulfonyl-N-(pyrazin-2-yl)-N-({5-[5-(trifluoromethyl)-1,2,4-oxadiazol-3-yl]thiophen-2-yl}methyl)pyrimidin-4-amine] | > 10000 nM | ≤ 1000 nM | ≤ 10000 nM | ≤ 10000 nM | ≤ 10000 nM | ≤ 10000 nM
COc1cncc(N(Cc2ccc(-c3noc(C(F)(F)F)n3)s2)c2cncc(OC)n2)n1 [Example BY, 6-Methoxy-N-(6-methoxypyrazin-2-yl)-N-({5-[5-(trifluoromethyl)-1,2,4-oxadiazol-3-yl]thiophen-2-yl}methyl)pyrazin-2-amine] | > 10000 nM | ≤ 10000 nM | ≤ 10000 nM | ≤ 10000 nM | ≤ 10000 nM | ≤ 10000 nM

More lines, now with the values ahead:

IC50 [1] | IC50 [2] | IC50 [3] | IC50 [4] | IC50 [5] | IC50 [6] | Structure (SMILES)
> 10000 nM | ≤ 1000 nM | ≤ 10000 nM | ≤ 10000 nM | ≤ 10000 nM | ≤ 10000 nM | FC(F)(F)c1nc(-c2ccc(CN(c3cnccn3)c3cccnn3)s2)no1 [Example DD, N-(Pyrazin-2-yl)-N-({5-[5-(trifluoromethyl)-1,2,4-oxadiazol-3-yl]thiophen-2-yl}methyl)pyridazin-3-amine]
> 10000 nM | ≤ 10000 nM | ≤ 10000 nM | ≤ 10000 nM | ≤ 10000 nM | ≤ 10000 nM | FC(F)(F)c1cnnc(N(Cc2ccc(-c3noc(C(F)(F)F)n3)s2)c2ccncc2)c1 [Example EJ, N-(Pyridin-4-yl)-5-(trifluoromethyl)-N-({5-[5-(trifluoromethyl)-1,2,4-oxadiazol-3-yl]thiophen-2-yl}methyl)pyridazin-3-amine]
≤ 10000 nM | ≤ 1000 nM | ≤ 500 nM | ≤ 500 nM | ≤ 500 nM | ≤ 10000 nM | FC(F)(F)c1nc(-c2ccc(CN(c3cnccn3)c3ccc(-c4ccccc4)nn3)s2)no1 [Example DN, 6-Phenyl-N-(pyrazin-2-yl)-N-({5-[5-(trifluoromethyl)-1,2,4-oxadiazol-3-yl]thiophen-2-yl}methyl)pyridazin-3-amine]
> 10000 nM | ≤ 1000 nM | ≤ 500 nM | ≤ 10000 nM | ≤ 10000 nM | ≤ 10000 nM | COc1ncncc1N(Cc1ccc(-c2noc(C(F)(F)F)n2)s1)c1cnccn1 [Example CY, 4-Methoxy-N-(pyrazin-2-yl)-N-({5-[5-(trifluoromethyl)-1,2,4-oxadiazol-3-yl]thiophen-2-yl}methyl)pyrimidin-5-amine]
> 10000 nM | ≤ 10000 nM | ≤ 10000 nM | ≤ 10000 nM | ≤ 10000 nM | ≤ 10000 nM | FC(F)(F)c1cnnc(N(Cc2ccc(-c3noc(C(F)(F)F)n3)s2)c2ccc(N3CCCC3)nn2)c1 [Example EW, 6-(Pyrrolidin-1-yl)-N-({5-[5-(trifluoromethyl)-1,2,4-oxadiazol-3-yl]thiophen-2-yl}methyl)-N-[5-(trifluoromethyl)pyridazin-3-yl]pyridazin-3-amine]
